Reference: patent publication EP0992240A1, “THERAPEUTIC AGENT FOR ERECTION FAILURE” (MOCHIDA PHARMACEUTICAL CO., LTD., priority 1997, dated 1998)

Columns and labels:
PDE type I = assay: PDE inhibiting activity, type I; type: biochemical, dog; details: PDE purified from canine aorta; 1 µM substrate cGMP or cAMP; read-out: Inhibition Activity IC50 (µM) Type I
Protocol: On the basis of the method of Lugnier et al. (Biochem. Pharmacol., 35, 1743-1751, 1986), PDE was purified from the aorta in a dog. The canine aorta was minced and homogenized with a Waring Blender and a glass homogenizer in six volumes of a Tris-HCl buffer solution (pH 7.5, 20 mM) containing 2 mM magnesium acetate, 5 mM ethylenediaminetetraacetic acid (EDTA), 100 µg/mL of phenylmethylsulforyl fluoride and 15 mM 2-mercaptoethanol (2-ME), and centrifuged at 1200 x g for 30 min. The supernatant was separated and salted out with ammonium sulfate which was added to 45% saturation. The resulting precipitated fraction was resuspended in a Tris-HCl buffer solution (pH 7.5, 20 mM) containing 2 mM magnesium acetate and 1 mM 2-ME, dialyzed overnight and applied to a DEAE-trisacryl column (DEAE […] M:IBF). By elution with a sodium chloride gradient (0 - 0.4 M), PDE types V and III were separated from the other isozymes. The supernatant fraction of 45% saturated ammonium sulfate was further mixed with ammonium sulfate to 65% saturation and salted out. The resulting precipitated fraction was similarly applied to the DEAE-trisacryl column and eluted by a sodium chloride gradient (0 - 0.4 M) so as to separate PDE type I.
The thus obtained PDE types V, III and I were measured for their activity in accordance with the method of Thompson et al. (Adv. Cyclic Nucleotide Res., 10, 69-72, 1979) and the method of Wells et al. (Biochim. Biophys. Acta, 384, 430-443, 1975). Specifically, a purified PDE sample was added to 50 mM Tris-HCl buffer solution (pH 7.5) containing 1 µM of substrate cGMP or cAMP (containing tritium-labelled cGMP or cAMP), 1 mM EGTA and 2 mM magnesium acetate. For PDE activity measurement, enzymatically produced 5' GMP or 5' AMP was further hydrolyzed into guanosine or adenosine with snake venom and separated from the substrate by means of an ion-exchange resin (Dowex 1-X2), followed by measuring with a scintillation counter. The activity of each test compound was determined as a percentage of the PDE activity measured when it was added as a dimethyl sulfoxide solution (DMSO) and its IC50 (50% inhibition concentration) was calculated by the probit method. The final concentration of DMSO was adjusted to be no more than 2% in consideration of the effect on PDE activity.

PDE type V = molecular target: T1, PDE type V (Canis lupus familiaris, UniProt O77746); assay: PDE inhibiting activity, type V; type: biochemical, dog; details: PDE purified from canine aorta; 1 µM substrate cGMP or cAMP; read-out: Inhibition Activity IC50 (µM) Type V
T1 construct: By elution with a sodium chloride gradient (0 - 0.4 M), PDE types V and III were separated from the other isozymes; from tissue; host or cells: canine aorta
Protocol: The canine aorta was minced and homogenized with a Waring Blender and a glass homogenizer in six volumes of a Tris-HCl buffer solution (pH 7.5, 20 mM) containing 2 mM magnesium acetate, 5 mM ethylenediaminetetraacetic acid (EDTA), 100 µg/mL of phenylmethylsulforyl fluoride and 15 mM 2-mercaptoethanol (2-ME), and centrifuged at 1200 x g for 30 min. […] By elution with a sodium chloride gradient (0 - 0.4 M), PDE types V and III were separated from the other isozymes. […] The resulting precipitated fraction was similarly applied to the DEAE-trisacryl column and eluted by a sodium chloride gradient (0 - 0.4 M) so as to separate PDE type I.
Specifically, a purified PDE sample was added to 50 mM Tris-HCl buffer solution (pH 7.5) containing 1 µM of substrate cGMP or cAMP (containing tritium-labelled cGMP or cAMP), 1 mM EGTA and 2 mM magnesium acetate. For PDE activity measurement, enzymatically produced 5' GMP or 5' AMP was further hydrolyzed into guanosine or adenosine with snake venom and separated from the substrate by means of an ion-exchange resin (Dowex 1-X2), followed by measuring with a scintillation counter. […] The final concentration of DMSO was adjusted to be no more than 2% in consideration of the effect on PDE activity.

Structure (SMILES) | IC50 (PDE type I) [µM] | IC50 (PDE type V) [µM]
O=c1c(Cc2cccnc2)cn2c3ccc(Br)cc3c3cc(O)cc1c32 [Example 2, 10-bromo-2-hydroxy-5-(3-pyridylmethyl)-4H-pyrido[3,2,1-jk]carbazol-4-one] | > 30 | 0.1
CC(C)OC(=O)COc1cc2c(=O)c(Cc3cccnc3)cn3c4ccc(Br)cc4c(c1)c23 [Example 4, 10-bromo-2-i-propoxycarbonylmethyloxy-5-(3-pyridylmethyl)-4H-pyrido[3,2,1-jk]carbazol-4-one] | > 30 | 0.0038
CCOC(=O)COc1cc2c(=O)c(Cc3cccnc3)cn3c4ccc(Br)cc4c(c1)c23 [Example 5, 10-bromo-2-ethoxycarbonylmethyloxy-5-(3-pyridylmethyl)-4H-pyrido[3,2,1-jk]carbazol-4-one] | > 30 | 0.0055
O=c1c(Cc2cccnc2)cn2c3ccc(Br)cc3c3cc(OCc4cccnc4)cc1c32 [Example 10, 10-bromo-5-(3-pyridylmethyl)-2-(3-pyridylmethyloxy)-4H-pyrido[3,2,1-jk]carbazol-4-one] | > 30 | 0.059
O=c1c(Cc2cccnc2)cn2c3ccc(Br)cc3c3cc(OCc4ccccc4)cc1c32 [Example 11, 2-benzyloxy-10-bromo-5-(3-pyridylmethyl)-4H-pyrido[3,2,1-jk]carbazol-4-one] | > 30 | 0.11
COc1cc2c(=O)c(C)cn3c4ccc(Br)cc4c(c1)c23 [Example 13, 10-bromo-2-methoxy-5-methyl-4H-pyrido[3,2,1-jk]carbazol-4-one] | > 100 | 0.1
Cc1cn2c3ccc(Br)cc3c3cc(O)cc(c1=O)c32 [Example 14, 10-bromo-2-hydroxy-5-methyl-4H-pyrido[3,2,1-jk]carbazol-4-one] | > 300 | 0.1
Cc1cn2c3ccc(Br)cc3c3cc(OCC(=O)OC(C)C)cc(c1=O)c32 [Example 16] | > 30 | 0.0017
CCOC(=O)COc1cc2c(=O)c(C)cn3c4ccc(Br)cc4c(c1)c23 [Example 17, 10-bromo-2-ethoxycarbonylmethyloxy-5-methyl-4H-pyrido[3,2,1-jk]carbazol-4-one] | > 30 | 0.0035
CCCC(=O)COc1cc2c(=O)c(C)cn3c4ccc(Br)cc4c(c1)c23 [Example 18, 10-bromo-2-(2-oxopentyloxy)-5-methyl-4H-pyrido[3,2,1-jk]carbazol-4-one] | > 30 | 0.015
COc1cc2c(=O)ccn3c4ccc(Br)cc4c(c1)c23 [Example 19, 10-bromo-2-methoxy-4H-pyrido[3,2,1-jk]carbazol-4-one] | > 10 | 0.05
O=c1ccn2c3ccc(Br)cc3c3cc(O)cc1c32 [Example 20, 10-bromo-2-hydroxy-4H-pyrido[3,2,1-jk]carbazol-4-one] | > 100 | 0.03
CC(C)(C)OC(=O)COc1cc2c(=O)ccn3c4ccc(Br)cc4c(c1)c23 [Example 21, 10-bromo-2-t-butoxycarbonylmethyloxy-4H-pyrido[3,2,1-jk]carbazol-4-one] | > 30 | 0.0009
CC(C)OC(=O)COc1cc2c(=O)ccn3c4ccc(Br)cc4c(c1)c23 [Example 22, 10-bromo-2-i-propoxycarbonylmethyloxy-4H-pyrido[3,2,1-jk]carbazol-4-one] | > 30 | 0.0008
CCOC(=O)COc1cc2c(=O)ccn3c4ccc(Br)cc4c(c1)c23 [Example 23, 10-bromo-2-ethoxycarbonylmethyloxy-4H-pyrido[3,2,1-jk]carbazol-4-one] | > 30 | 0.002
O=C(O)COc1cc2c(=O)ccn3c4ccc(Br)cc4c(c1)c23 [Example 24, 10-bromo-2-carboxymethyloxy-4H-pyrido[3,2,1-jk]carbazol-4-one] | > 30 | 0.19

Structure (SMILES) | IC50 (PDE type I) [µM] | IC50 (PDE type V) [µM]
O=c1ccn2c3ccc(Br)cc3c3cc(OCc4cccnc4)cc1c32 [Example 25, 10-bromo-2-(3-pyridylmethyloxy)-4H-pyrido[3,2,1-jk]carbazol-4-one] | > 100 | 0.011
O=c1ccn2c3ccc(Br)cc3c3cc(OCc4ccccc4)cc1c32 [Example 26, 2-benzyloxy-10-bromo-4H-pyrido[3,2,1-jk]carbazol-4-one] | > 30 | 0.01
O=c1ccn2c3ccc(Br)cc3c3cc(OCc4ncon4)cc1c32 [Example 27, 10-bromo-2-(1,2,4-oxadiazol-3-yl)methyloxy-4H-pyrido[3,2,1-jk]carbazol-4-one] | > 30 | 0.021
CC(=O)Oc1cc2c(=O)ccn3c4ccc(Br)cc4c(c1)c23 [Example 28, 2-acetoxy-10-bromo-4H-pyrido[3,2,1-jk]carbazol-4-one] | > 100 | 0.1
CCCC(=O)COc1cc2c(=O)ccn3c4ccc(Br)cc4c(c1)c23 [Example 29, 10-bromo-2-(2-oxopentyloxy)-4H-pyrido[3,2,1-jk]carbazol-4-one] | > 30 | 0.0047
COc1cc2c(=O)c(Cc3cccnc3)cn3c4cc(Br)ccc4c(c1)c23 [Example 30, 9-bromo-2-methoxy-5-(3-pyridylmethyl)-4H-pyrido[3,2,1-jk]carbazol-4-one] | > 30 | 0.0047
CC(C)(C)OC(=O)COc1cc2c(=O)c(Cc3cccnc3)cn3c4cc(Br)ccc4c(c1)c23 [Example 32, 9-bromo-2-t-butoxycarbonylmethyloxy-5-(3-pyridylmethyl)-4H-pyrido[3,2,1-jk]carbazol-4-one] | > 30 | 0.091
O=C(O)COc1cc2c(=O)c(Cc3cccnc3)cn3c4cc(Br)ccc4c(c1)c23 [Example 33, 9-bromo-2-carboxymethyloxy-5-(3-pyridylmethyl)-4H-pyrido[3,2,1-jk]carbazol-4-one] | > 30 | 0.0032
CC(=O)OCc1cncc(COc2cc3c(=O)c(Cc4cccnc4)cn4c5cc(Br)ccc5c(c2)c34)c1 [Example 35, 2-(5-acetoxymethyl-3-pyridylmethyloxy)-9-bromo-5-(3-pyridylmethyl)-4H-pyrido[3,2,1-jk]carbazol-4-one] | > 30 | 0.088
O=c1c(Cc2cccnc2)cn2c3cc(Br)ccc3c3cc(OCc4cncc(CO)c4)cc1c32 [Example 36, 9-bromo-2-(5-hydroxymethyl-3-pyridylmethyloxy)-5-(3-pyridylmethyl)-4H-pyrido[3,2,1-jk]carbazol-4-one] | > 30 | 0.021
COc1cc2c(=O)c(Cc3ccccc3)cn3c4cc(Br)ccc4c(c1)c23 [Example 39, 5-benzyl-9-bromo-2-methoxy-4H-pyrido[3,2,1-jk]carbazol-4-one] | > 30 | 0.026
O=c1c(Cc2ccccc2)cn2c3cc(Br)ccc3c3cc(O)cc1c32 [Example 40, 5-benzyl-9-bromo-2-hydroxy-4H-pyrido[3,2,1-jk]carbazol-4-one] | > 30 | 0.009
O=c1c(Cc2cccnc2)cn2c3ccccc3c3cc(O)cc1c32 [Example 41, 2-hydroxy-5-(3-pyridylmethyl)-4H-pyrido[3,2,1-jk]carbazol-4-one] | 48 | 0.36
CC(=O)Oc1cc2c(=O)c(Cc3cccnc3)cn3c4ccccc4c(c1)c23 [Example 42, 2-acetoxy-5-(3-pyridylmethyl)-4H-pyrido[3,2,1-jk]carbazol-4-one] | > 30 | 0.2
CC(=O)Oc1ccc2c3cccc4c(=O)c(Cc5cccnc5)cn(c2c1)c43 [Example 45, 9-acetoxy-5-(3-pyridylmethyl)-4H-pyrido[3,2,1-jk]carbazol-4-one] | > 30 | 0.06
O=c1ccn2c3ccc(Cl)cc3c3cc(Cl)cc1c32 [Example 48, 2,10-dichlor-4H-pyrido[3,2,1-jk]carbazol-4-one] | > 30 | 
